What was measured:
[1] = test system: hippocampus of 5XFAD mice; assay: RNA sequencing of hippocampus of 5XFAD mice after chronic CI-994 treatment; format: in vivo, mouse; details: 5XFAD mice hippocampus
Source text: To test if high-throughput genome-wide RNA sequencing can be readily used a biomarker for HDAC inhibitor-mediated treatment of cognitive decline associate with AD, a mouse model of familial AD, the SXFAD mice were used. These mice harbor point mutations in the AD-related pathogenic presenilin and amyloid precursor protein pathways, and recapitulate the majority of human AD pathologies, including amyloid-β deposition, neurodegeneration, and cognitive impairments. […] After completion of treatment, mice were sacrificed, their brain regions dissected, and total RNA extracted of the hippocampus, a brain region important for memory formation and storage. The RNA was quality controlled using Agilent's bioanalyzer 5' and 3'-end labeled and sequenced on an Illumina HiSeq sequencer with 200 million reads per sample. Sequence reads were aligned to the mouse genome, and quality-filtered. Differential analysis was then conducted using Cuffdiff with IIlumina iGenome mm9 UCSC gene annotation.

[2] = test system: peripheral blood mononuclear cells of 5XFAD mice; assay: RNA sequencing of peripheral blood mononuclear cells of 5XFAD mice after CI-994 treatment; format: in vivo, mouse; details: PBMC, CI-994 1 mg/kg i.p. every other day 1 month, FIG. 2
Description: After completion of treatment, blood was drawn and peripheral blood mononuclear cells were rapidly isolated. The cells were washed with PBS and total RNA was extracted using the RNeasy kit (Qiagen). RNA integrity was analyzed using the Bioanalyzer 2100 (Agilent) and the libraries were prepared using the Ovation Ultralow Library System kit (NuGen). Libraries were then pooled in equal amounts and high-throughput sequencing was performed on an Illumina HiSeq 2000 platform. Two individual biological replicates per condition were sequenced.

cognitive function = details: cited from earlier work; for cognitive function in vivo: see US 2011/0224303
[3] = CI-994 1 mg/kg i.p. daily 1 month

## CC(=O)Nc1ccc(C(=O)Nc2ccccc2N)cc1 [CI-994, 4-(acetylamino)-N-(2-aminophenyl)benzamide]
[1]; [3]
  1700026L06Rik expression level: 0.5624
  4833427G06Rik expression level: 1.156
  Abhd2 expression level: 16.6349
  Acaa2 expression level: 15.6611
  Acacb expression level: 0.6669
  Acss3 expression level: 0.8644
  Adcy1 expression level: 121.693
  Aebp1 expression level: 4.334
  Aldh1a1 expression level: 16.8375
  Aldh2 expression level: 35.3667
  Als2cr4 expression level: 14.5748
  Angptl2 expression level: 1.519
  Antxr1 expression level: 4.106
  Apln expression level: 9.121
  Arc expression level: 77.622
  Arhgap28 expression level: 0.18
  Arsg expression level: 13.3427
  Atf4 expression level: 63.7327
  Atp2b3 expression level: 41.3436
  Atp7a expression level: 1.987
  Atp11c expression level: 3.649
  B230217C12Rik expression level: 41.8821
  BC049635 expression level: 0.514
  Baiap2l1 expression level: 0.6224
  Bmp6 expression level: 5.713
  Bmp7 expression level: 2.931
  Brwd3 expression level: 1.786
  Bst2 expression level: 4.307
  Btbd3 expression level: 34.9585
  C1ql2 expression level: 39.6924
  C1qtnf5 expression level: 15.0312
  C230081A13Rik expression level: 8.241
  C530008M17Rik expression level: 17.1167
  Cabp7 expression level: 205.981
  Car14 expression level: 6.584
  Ccdc141 expression level: 2.317
  Ccnd1 expression level: 15.4148
  Cdh3 expression level: 0.3686
  Cdr2 expression level: 5.994
  Cndp1 expression level: 0.2514
  Cnst expression level: 10.5531
  Col4a3 expression level: 0.1459
  Col4a4 expression level: 0.1702
  Col17a1 expression level: 0.02351
  Coro2b expression level: 59.6533
  Cpn1 expression level: 0.2381
  Cpne7 expression level: 72.8282
  Cpt1b expression level: 0
  Crtac1 expression level: 33.2962
  Crtap expression level: 2.382
  Ctnnal1 expression level: 4.538
  Cul4b expression level: 14.4206
  Cxcl14 expression level: 62.1186
  Dab2 expression level: 2.765
  Dclk3 expression level: 6.883
  Dcn expression level: 18.2706
  Dgkh expression level: 8.277
  Dio2 expression level: 13.4167
  Dmrt3 expression level: 0.6692
  Dnahc11 expression level: 0.2181
  Doc2b expression level: 33.8561
  Dpep1 expression level: 0.1399
  Dsg2 expression level: 0.9993
  Dsp expression level: 8.258
  Ephx1 expression level: 17.8668
  Eps8l2 expression level: 1.379
  F11r expression level: 3.438
  Fads2 expression level: 8.701
  Fam38a expression level: 0.6613
  Fam163b expression level: 67.8893
  Fras1 expression level: 0.749
  Fst expression level: 1.755
  Fxyd1 expression level: 37.5709
  Fzd4 expression level: 3.613
  Gabra2 expression level: 45.2624
  Galm expression level: 1.687
  Gas6 expression level: 39.2248
  Glb1l2 expression level: 0.5483
  Glul expression level: 251.125
  Gm221 expression level: 0.499
  Gm853 expression level: 0
  Gm11744 expression level: 2.594
  Gng7 expression level: 64.066
  Gprc5c expression level: 1.254
  Grm2 expression level: 13.2878
  Gyltl1b expression level: 0.192
  Hapln1 expression level: 10.6547
  Hbb-b2 expression level: 3.714
  Hemk1 expression level: 4.074
  Homer2 expression level: 14.9404
  Hsd11b1 expression level: 28.1849
  Hspg2 expression level: 0.7372
  Ifi27l1 expression level: 36.0763
  Igfbp5 expression level: 38.2003
  Igfbp7 expression level: 18.1462
  Igfn1 expression level: 0.1271
  Iqgap1 expression level: 3.038
  Isoc1 expression level: 14.1426
  Kcnj2 expression level: 3.205
  Kcnj10 expression level: 64.1636
  Kif9 expression level: 1.8759
  Kit expression level: 18.7665
  Klhdc7a expression level: 4.613
  Lama5 expression level: 0.8869
  Lamp2 expression level: 40.9038
  Leprel4 expression level: 7.907
  Lingo1 expression level: 88.754
  Llgl2 expression level: 0.4373
  Lmx1a expression level: 0.5034
  Loxl1 expression level: 1.486
  Loxl2 expression level: 0.1912
  Lrp5 expression level: 2.432
  Lrp10 expression level: 14.6733
  Ltc4s expression level: 7.102
  Lypd1 expression level: 47.9728
  Mccc1 expression level: 5.41
  Mfsd7c expression level: 0.65
  Mmp15 expression level: 6.699
  Mpp7 expression level: 1.162
  Myoc expression level: 11.9051
  Myof expression level: 0.8629
  Ndst4 expression level: 5.129
  Nek11 expression level: 0.5801
  Nid2 expression level: 1.141
  Nos1 expression level: 8.7895
  Npas4 expression level: 3.8842
  Npr1 expression level: 1.7036
  Nqo1 expression level: 3.794
  Nt5dc1 expression level: 1.205
  Oca2 expression level: 0.467
  Odz4 expression level: 7.194
  Ooep expression level: 0.07202
  Pcp4l1 expression level: 50.8954
  Pgcp expression level: 8.02
  Phactr2 expression level: 6.295
  Pla2g4e expression level: 1.85
  Plek2 expression level: 0.4301
  Plekha2 expression level: 12.177
  Pltp expression level: 36.9312
  Plxnb2 expression level: 10.316
  Polr1a expression level: 5.4566
  Pon1 expression level: 0.12
  Ppfibp2 expression level: 2.53
  Ppp1r1a expression level: 67.7123
  Ppp1r1b expression level: 37.5707
  Prelp expression level: 9.53
  Prox1 expression level: 14.3616
  Prps2 expression level: 12.0363
  Ptpn14 expression level: 1.315
  Rab20 expression level: 1.273
  Rai14 expression level: 1.053
  Rbp3 expression level: 0.5204
  Rd3 expression level: 0.6656
  Ripk4 expression level: 0.1565
  Rrh expression level: 0.05235
  Rsph4a expression level: 2.9407
  Scg5 expression level: 219.826
  Scn4b expression level: 8.643
  Scube1 expression level: 4.586
  Scube3 expression level: 0.6281
  Sdk1 expression level: 0.6821
  Serpinb1b expression level: 0.9169
  Sfrp5 expression level: 0.5384
  Slc4a10 expression level: 46.0086
  Slc5a3 expression level: 5.289
  Slc12a2 expression level: 20.5749
  Slc12a4 expression level: 5.898
  Slc12a7 expression level: 1.124
  Slc16a2 expression level: 14.2113
  Slc16a4 expression level: 2.157
  Slc16a9 expression level: 1.385
  Slc16a12 expression level: 1.226
  Slc22a6 expression level: 0.7873
  Slc23a2 expression level: 27.4105
  Slc25a39 expression level: 30.7081
  Slc29a4 expression level: 11.9409
  Slc37a2 expression level: 0.8387
  Slc39a4 expression level: 1.073
  Slco1c1 expression level: 20.1851
  Smpdl3a expression level: 19.7502
  Sod3 expression level: 6.1
  Spag16 expression level: 0.4608
  Spint2 expression level: 15.9511
  Sptlc3 expression level: 0.2346
  Ssfa2 expression level: 10.0587
  Stk39 expression level: 28.2125
  Stra6 expression level: 4.817
  Tbc1d1 expression level: 4.993
  Tbc1d2 expression level: 0.8273
  Tbc1d9 expression level: 19.741
  Tbcel expression level: 17.0147
  Tcn2 expression level: 9.139
  Tead1 expression level: 4.075
  Tgfbi expression level: 1.202
  Tgfbr3 expression level: 3.88
  Timp2 expression level: 84.9023
  Tinagl1 expression level: 2.32
  Tjp3 expression level: 0.9513
  Tlr2 expression level: 1.035
  Tmem27 expression level: 0.3657
  Tmem98 expression level: 10.1715
  Tmem108 expression level: 8.4143
  Tns1 expression level: 3.868
  Tspan33 expression level: 15.0442
  Ttc21a expression level: 1.107
  Vamp8 expression level: 13.404
  Vcam1 expression level: 10.2949
  Vcp expression level: 1.545
  Wdfy1 expression level: 7.05
  Wdr16 expression level: 1.6294
  Wfs1 expression level: 43.1125
  Zfp185 expression level: 1.3415
  Zfp605 expression level: 4.398
  rescue of the downregulated genes: 100%
[1]; CI-994 1 mg/kg i.p. daily 1 month, FIG. 1
  rescue of the differentially expressed genes to levels comparable to control mice: rescued to near completion
[1]; FIG. 1 heatmap, significance level p<0.05
  number of genes rescued by CI-994 treatment: 239 genes
[2]
  number of differentially expressed genes (wild type vs 5XFAD) rescued to control levels: 69 genes
Cognitive function; earlier finding stated for CI-994
  AD-related cognitive impairments: reduce AD-related cognitive impairments
Cognitive function
  cognitive function in vivo: improve cognitive function in vivo

## Nc1ccc(C(=O)Nc2ccccc2N)cc1 [dinaline]
Cognitive function
  cognitive function in vivo: improve cognitive function in vivo

From US20150219673A1, “THE USE OF GENE EXPRESSION PROFILING AS A BIOMARKER FOR ASSESSING THE EFFICACY OF HDAC INHIBITOR TREATMENT IN NEURODEGENERATIVE CONDITIONS” (Massachusetts Institute of Technology, priority 2012, published 2015)
